Experimental findings from patent US11446287B2, “Compounds and methods for EP300 or CBP modulation and indications therefor” (Opna Immuno-Oncology SA, priority 2019, dated 2022) are described below.

The assay addresses T1, Recombinant human BRD4 containing dual bromodomains (BRD4-BD12 (1-477)) (Homo sapiens, UniProt O60885).
T1 construct: Recombinant human BRD4 containing dual bromodomains (BRD4-BD12 (1-477)); made in house; host or cells: E. coli BL21-CodonPlus (DE3), modified pET vector
The assay is described as follows: BRD4 Alphascreen binding assay. The method, boiled down: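 AlphaScreen proximity between Ni-chelate-bound BRD4-BD12 (1-477) and streptavidin-captured H4 K5/K8/K12/K16-acetyl peptide measured after 1 h room-temperature compound incubation and 30 min with 7.5 μg/ml beads. Buffer: 50 mM HEPES pH 7.5, 50 mM NaCl, 0.01% BSA, 0.01% Triton X-100; data plate-normalized and four-parameter fit for IC50.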
(Alpha assays give light when donor and acceptor beads are brought close together.)

Molecules are shown by their SMILES.

In the case of `Cc1noc(C)c1-c1cnc2c(c1)c(-c1cccc(S(=O)(=O)NC3CC3)c1)cn2Cc1ccccc1` [P-0083, 3-(1-benzyl-5-(3,5-dimethylisoxazol-4-yl)-1H-pyrrolo[2,3-b]pyridin-3-yl)-N-cyclopropylbenzenesulfonamide], the IC50 is 1 to 8 µM.

With `Cc1noc(C)c1-c1cnc2c(C(=O)C3CC3)c(O)n(-c3ccnc(C(=O)O)c3)c2c1` [P-0084, 4-(3-(cyclopropanecarbonyl)-6-(3,5-dimethylisoxazol-4-yl)-2-hydroxy-1H-pyrrolo[3,2-b]pyridin-1-yl)picolinic acid], the concentration for half-maximal inhibition (IC50) lay within 0.0001 to 1 µM.

With `Cc1noc(C)c1-c1cnc2c(c1)c(-c1cccc(C(=O)O)c1)cn2C(=O)c1ccccc1` [P-0085, 3-(1-benzoyl-5-(3,5-dimethylisoxazol-4-yl)-1H-pyrrolo[2,3-b]pyridin-3-yl)benzoic acid], the IC50 lay within 8 to 1000 µM.

Regarding `Cc1noc(C)c1-c1cnc2c(CC3CCC3)cn(-c3c(C(=O)O)ccc(Br)c3F)c2c1` [P-0086, 4-bromo-2-(3-(cyclobutylmethyl)-6-(3,5-dimethylisoxazol-4-yl)-1H-pyrrolo[3,2-b]pyridin-1-yl)-3-fluorobenzoic acid], the IC50 lay within 1 to 8 µM.

As to `COc1c(-n2cc(CC3CCC3)c3ncc(-c4c(C)noc4C)cc32)ccc(C(=O)O)c1F` [P-0087, 4-(3-(cyclobutylmethyl)-6-(3,5-dimethylisoxazol-4-yl)-1H-pyrrolo[3,2-b]pyridin-1-yl)-2-fluoro-3-methoxybenzoic acid], the IC50 was in the range of 1 to 8 µM.

For the compound `Cc1noc(C)c1-c1cnc2c(C(=O)c3cccc(Cl)c3)cn(-c3ccnc(C(=O)O)c3)c2c1` [P-0088, 4-(3-(3-chlorobenzoyl)-6-(3,5-dimethylisoxazol-4-yl)-1H-pyrrolo[3,2-b]pyridin-1-yl)picolinic acid], the IC50 fell in the range of 1 to 8 µM.

With `Cc1noc(C)c1-c1cnc2c(C(=O)c3ccccc3Cl)cn(-c3ccnc(C(=O)O)c3)c2c1` [P-0089, 4-(3-(2-chlorobenzoyl)-6-(3,5-dimethylisoxazol-4-yl)-1H-pyrrolo[3,2-b]pyridin-1-yl)picolinic acid], the IC50 is 1 to 8 µM.

As for `Cc1noc(C)c1-c1cnc2c(Cc3cccc(Cl)c3)cn(-c3ccnc(C(=O)O)c3)c2c1` [P-0090, 4-(3-(3-chlorobenzyl)-6-(3,5-dimethylisoxazol-4-yl)-1H-pyrrolo[3,2-b]pyridin-1-yl)picolinic acid], the half-inhibitory concentration (IC50) was 0.0001 to 1 µM.

Turning to `Cc1noc(C)c1-c1cnc2c(Cc3ccccc3Cl)cn(-c3ccnc(C(=O)O)c3)c2c1` [P-0091, 4-(3-(2-chlorobenzyl)-6-(3,5-dimethylisoxazol-4-yl)-1H-pyrrolo[3,2-b]pyridin-1-yl)picolinic acid], the IC50 fell in the range of 1 to 8 µM.

In the case of `Cc1noc(C)c1-c1cnc2c(c1)c(-c1cccc(C(=O)NS(C)(=O)=O)c1)cn2Cc1ccccc1` [P-0092, 3-(1-benzyl-5-(3,5-dimethylisoxazol-4-yl)-1H-pyrrolo[2,3-b]pyridin-3-yl)-N-(methylsulfonyl)benzamide], the IC50 lay within 1 to 8 µM.

Regarding `Cc1noc(C)c1-c1cnc2c(c1)c(C1=CCC(C(=O)O)CC1)cn2Cc1ccccc1` (centres unmarked) [P-0093, 4-(1-benzyl-5-(3,5-dimethylisoxazol-4-yl)-1H-pyrrolo[2,3-b]pyridin-3-yl)cyclohex-3-ene-1-carboxylic acid], the half-maximal inhibitory concentration (IC50) lay in the range of 1 to 8 µM.

For the compound `Cc1noc(C)c1-c1cnc2c(c1)c(-c1c(F)cc(C(=O)O)cc1F)cn2C(C)c1ccccn1` (centres unmarked) [P-0094, 4-(5-(3,5-dimethylisoxazol-4-yl)-1-(1-(pyridin-2-yl)ethyl)-1H-pyrrolo[2,3-b]pyridin-3-yl)-3,5-difluorobenzoic acid], the IC50 fell in the range of 8 to 1000 µM.

Consider `Cc1noc(C)c1-c1cnc2c(c1)c(-c1c(Cl)cc(C(=O)O)cc1Cl)cn2C(C)c1ccccn1` (centres unmarked) [P-0095, 3,5-dichloro-4-(5-(3,5-dimethylisoxazol-4-yl)-1-(1-(pyridin-2-yl)ethyl)-1H-pyrrolo[2,3-b]pyridin-3-yl)benzoic acid], for which the IC50 fell in the range of 1 to 8 µM.

On to `Cc1noc(C)c1-c1cnc2c(c1)c(-c1c(F)ccc(NS(C)(=O)=O)c1F)cn2C(C)c1ccccn1` (centres unmarked) [P-0096, N-(3-(5-(3,5-dimethylisoxazol-4-yl)-1-(1-(pyridin-2-yl)ethyl)-1H-pyrrolo[2,3-b]pyridin-3-yl)-2,4-difluorophenyl)methanesulfonamide], for which the IC50 was 1 to 8 µM.

As a reminder, the IC50 is the point on the concentration scale where inhibition reaches its midpoint.
